Legend:
[1] = Vasodilatory-hypotensive activity, general procedure of Example III (species not separated); format: in vivo; conditions: for mesenteric blood flow / systemic blood pressure / vasodilatory-hypotensive activity: general procedure of Example III; for vasodilatory-hypotensive activity: mammalian
Excerpt: (§1) The urotensin peptide from Example II is examined for effects on the secretion of ACTH and β-endorphin in vitro and also examined in vivo. A low potency (4%) to stimulate the secretion of ACTH and β-endorphinby cultured rat pituitary cells is observed. The peptide also stimulates ACTH and B-END-LI secretion in vivo in several rat preparations. UI activity of the peptide is evident in the isolated rat hind limb assay, Lederis, K. et al. "Effects and Assay of Urotensin I on the Perfused Hind Limb of the Rat", Gen. Comp. Endocrinol., 24:10-16, 1974. In vivo hypotensive activity of extracted peptides is measured in anaesthetized rats, Lederis, K. and Medakovic, M. "Pharmacological Observations on the Hypotensive Actin of Extracts of Teleost Fish Urophyses (Urotensin I) in the Rat", Br. J. Pharmacol. 51:315-324, 1974, and in anaesthetized dogs, MacCannell and Lederis, "Dilatation of the Mesenteric Vascular Bed of the Dog Produced by a Peptide, Urotensin I", J. Pharm. Exp. Ther. 203:38-46, 1977.

[2] = ACTH and β-endorphin secretion, general procedure of Example III (in vitro / in vivo not separated)
Excerpt: as §1

[3] = test system: Perfused Hind Limb of the Rat; experiment: Isolated rat hind limb assay (UI activity)
Excerpt: as §1

[4] = test system: cultured rat pituitary cells; experiment: Secretion of ACTH and β-endorphin by cultured rat pituitary cells; format: cell-based; conditions: relative potency, reference not named
Excerpt: as §1

[5] = In vivo hypotensive activity in anaesthetized rats; conditions: anaesthetized rat
Excerpt: as §1

[6] = test system: mesenteric vascular bed; experiment: In vivo hypotensive activity / mesenteric vasodilatation in anaesthetized dogs; design: species or system dog
Excerpt: as §1
In the pentobarbital-anaesthetized dog, the threshold dose of Maggy UI for mesenteric vasodilatation, when given close arterially into the cephalic mesenteric A, is between 0.001 and 0.01 μg.

[7] = ACTH and B-END-LI secretion in vivo in several rat preparations
Excerpt: as §1

[8] = test system: teleost fish pituitaries; experiment: Secretion of ACTH by teleost fish pituitaries
[9] = test system: isolated mesenteric artery strips of the rat; experiment: Isolated mesenteric artery strips of the rat
Excerpt: The synthetic peptides described above with respect to Example I are generally equipotent with the extracted and purified peptide, as tested in the anaesthetized dog in vivo and when tested in isolated mesenteric artery strips of the rat according to Muramatsu, I., Miura, A., Fujiwara, M. and Lederis, K., Gen. Comp. Endocrinol. 45:446-452, 1981.

[10] = pentobarbital-anaesthetized dog, doses of 0.1-0.5 μg

| Substance | mesenteric blood flow [1] | systemic blood pressure [1] | vasodilatory-hypotensive activity [1] | secretion of ACTH and β-END-LI ([2]; general procedure of Example III) | UI activity [3] | blood pressure ([1]; summary statement) | potency to stimulate the secretion of ACTH and β-endorphin [4] | blood pressure [5] | blood pressure ([6]; anaesthetized dog) | dilatation of vascular beds other than the mesenteric ([6]; anaesthetized dog) | activity compared with the extracted and purified peptide ([6]; anaesthetized dog in vivo) | accompanying change in blood pressure (decrease) [6, 10] | mesenteric flow [6, 10] | ACTH and β-endorphin activities ([2]; in vitro and in vivo (summary statement)) | ACTH and B-END-LI secretion in vivo [7] | potency in stimulating the secretion of ACTH compared with amunine [8] | activity compared with the extracted and purified peptide [9] |
| --- | --- | --- | --- | --- | --- | --- | --- | --- | --- | --- | --- | --- | --- | --- | --- | --- | --- |
| Ac-SEEPPMSIDLTFHMLRNMIHRAKMEGEREQALINRNLLDEV-NH2 [IV] | very significant increasing | lowering | causes vasodilatory-hypotensive activity | stimulates |  |  |  |  |  |  |  |  |  |  |  |  |  |
| H-SEEPPMSIDLTFHMLRNMIHRAKMEGER-NH2 [Example V, H-Ser-Glu-Glu-Pro-Pro-Met-Ser-Ile-Asp-Leu-Thr-Phe-His-Met-Leu-Arg-Asn-Met- Ile-His-Arg-Ala-Lys-Met-Glu-Gly-Glu-Arg-NH2] | increasing | lowering | significant |  |  |  |  |  |  |  |  |  |  |  |  |  |  |
| H-SEEPPMSIDLTFHMLRNMIHRAKMEGEREQALINRNLLDEV-NH2 [Maggy UI] |  |  |  |  | evident | substantially lower blood pressure for an extended time period | 4% | more marked fall in blood pressure | modest but sustained depression of the blood pressure | does not dilate other vascular beds | not significantly different | about 10% | significant increase | stimulate ACTH and β-endorphin activities in vitro and in vivo | stimulates | somewhat more potent than amunine | not significantly different |

Source: US4908352A, “Urotensin peptides” (The Salk Institute for Biological Studies, priority 1987, dated 1990)
